Measurements reported in PubChem BioAssay AID2060492 (Molecular Pharmacology Branch, DTP, NCI, 2025).
pIC50: −log10 of the molar value.

System: 695427-040-R-J1-PDC complex spheroids, viability percent T/C
Experiment: Anticancer human tumor 695427-040-R-J1-PDC patient-derived colon adenocarcinoma cell line growth inhibition [GQUAD]
Conditions: for pIC50: curve of first compound; for viability, T/C: stronger effect = lower value
Summary of the method: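 Viability of tumor cells grown as complex spheroids with endothelial and stromal cells, exposed to drug combinations. Top concentration at or near clinical Cmax (else 10 microM), diluted in half-log increments.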

[1] = second compound 0.0316 µM, first compound 0.0316 µM
[2] = second compound 0.0316 µM, first compound 0.1 µM
[3] = second compound 0.0316 µM, first compound 0.316 µM
[4] = second compound 0.0316 µM, first compound 1 µM
[5] = second compound 0.0316 µM, first compound 3.16 µM
[6] = second compound 0.0316 µM, first compound 10 µM
[7] = second compound 0.1 µM, first compound 0.0316 µM
[8] = second compound 0.1 µM, first compound 0.1 µM
[9] = second compound 0.1 µM, first compound 0.316 µM
[10] = second compound 0.1 µM, first compound 1 µM
[11] = second compound 0.1 µM, first compound 3.16 µM
[12] = second compound 0.1 µM, first compound 10 µM
[13] = second compound 0.316 µM, first compound 0.0316 µM
[14] = second compound 0.316 µM, first compound 0.1 µM
[15] = second compound 0.316 µM, first compound 0.316 µM
[16] = second compound 0.316 µM, first compound 1 µM
[17] = second compound 0.316 µM, first compound 3.16 µM
[18] = second compound 0.316 µM, first compound 10 µM
[19] = second compound 1 µM, first compound 0.0316 µM
[20] = second compound 1 µM, first compound 0.1 µM
[21] = second compound 1 µM, first compound 0.316 µM
[22] = second compound 1 µM, first compound 1 µM
[23] = second compound 1 µM, first compound 3.16 µM
[24] = second compound 1 µM, first compound 10 µM
[25] = second compound 3.16 µM, first compound 0.0316 µM
[26] = second compound 3.16 µM, first compound 0.1 µM
[27] = second compound 3.16 µM, first compound 0.316 µM
[28] = second compound 3.16 µM, first compound 1 µM
[29] = second compound 3.16 µM, first compound 3.16 µM
[30] = second compound 3.16 µM, first compound 10 µM
[31] = second compound 10 µM, first compound 0.0316 µM
[32] = second compound 10 µM, first compound 0.1 µM
[33] = second compound 10 µM, first compound 0.316 µM
[34] = second compound 10 µM, first compound 1 µM
[35] = second compound 10 µM, first compound 3.16 µM
[36] = second compound 10 µM, first compound 10 µM
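Also: spheroids exposed to compounds for seven days before readout.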

**Q.** How did the pIC50 (second compound 0.0316 µM) turn out when C#Cc1c(F)ccc2cc(O)cc(-c3ncc4c(N5CC6CCC(C5)N6)nc(OCC56CCCN5CC(F)C6)nc4c3F)c12 (stereo unspecified) + CN(C)c1ccc(Nc2c3ccc(NC(=O)CCN4CCCC4)cc3nc3cc(NC(=O)CCN4CCCC4)ccc23)cc1 was run?
**A.** < 5.00

**Q.** What about the pIC50 (second compound 0.1 µM) of the same compound?
**A.** < 5.00

**Q.** And the pIC50 (second compound 0.316 µM)?
**A.** < 5.00

**Q.** What about the pIC50 (second compound 1 µM) of the same compound?
**A.** < 5.00

**Q.** What about the pIC50 (second compound 3.16 µM) of the same compound?
**A.** < 5.00

**Q.** What about the pIC50 (second compound 10 µM) of the same compound?
**A.** < 5.00

**Q.** What about the viability, T/C [1] of the same compound?
**A.** 101%

**Q.** And the viability, T/C [2]?
**A.** 102%

**Q.** What about the viability, T/C [3] of the same compound?
**A.** 100%

**Q.** What about the viability, T/C [4] of the same compound?
**A.** 98.9%

**Q.** And the viability, T/C [5]?
**A.** 98.4%

**Q.** And the viability, T/C [6]?
**A.** 83.5%

**Q.** What about the viability, T/C [7] of the same compound?
**A.** 106%

**Q.** And the viability, T/C [8]?
**A.** 95.4%

**Q.** What about the viability, T/C [9] of the same compound?
**A.** 98%

**Q.** What about the viability, T/C [10] of the same compound?
**A.** 94%

**Q.** And the viability, T/C [11]?
**A.** 97.5%

**Q.** What about the viability, T/C [12] of the same compound?
**A.** 83.3%

**Q.** What about the viability, T/C [13] of the same compound?
**A.** 96.4%

**Q.** And the viability, T/C [14]?
**A.** 106%

**Q.** And the viability, T/C [15]?
**A.** 94.6%

**Q.** And the viability, T/C [16]?
**A.** 89.5%

**Q.** What about the viability, T/C [17] of the same compound?
**A.** 99.1%

**Q.** What about the viability, T/C [18] of the same compound?
**A.** 80.6%

**Q.** What about the viability, T/C [19] of the same compound?
**A.** 100%

**Q.** What about the viability, T/C [20] of the same compound?
**A.** 102%

**Q.** What about the viability, T/C [21] of the same compound?
**A.** 106%

**Q.** And the viability, T/C [22]?
**A.** 101%

**Q.** And the viability, T/C [23]?
**A.** 91.8%

**Q.** What about the viability, T/C [24] of the same compound?
**A.** 77.5%

**Q.** And the viability, T/C [25]?
**A.** 101%

**Q.** What about the viability, T/C [26] of the same compound?
**A.** 91%

**Q.** What about the viability, T/C [27] of the same compound?
**A.** 92.9%

**Q.** And the viability, T/C [28]?
**A.** 87.7%

**Q.** And the viability, T/C [29]?
**A.** 86.2%

**Q.** And the viability, T/C [30]?
**A.** 80.7%

**Q.** What about the viability, T/C [31] of the same compound?
**A.** 87.1%

**Q.** And the viability, T/C [32]?
**A.** 91.8%

**Q.** What about the viability, T/C [33] of the same compound?
**A.** 86.1%

**Q.** And the viability, T/C [34]?
**A.** 87.4%

**Q.** What about the viability, T/C [35] of the same compound?
**A.** 82.4%

**Q.** What about the viability, T/C [36] of the same compound?
**A.** 62.4%

**Q.** Which results are given for C=CCn1c(=O)c2cnc(Nc3ccc(N4CCN(C)CC4)cc3)nc2n1-c1cccc(C(C)(C)O)n1 + CN(C)c1ccc(Nc2c3ccc(NC(=O)CCN4CCCC4)cc3nc3cc(NC(=O)CCN4CCCC4)ccc23)cc1?
**A.** pIC50 (second compound 0.0316 µM): < 5.00; pIC50 (second compound 0.1 µM): < 5.00; pIC50 (second compound 0.316 µM): < 5.00; pIC50 (second compound 1 µM): < 5.00; pIC50 (second compound 3.16 µM): 5.06; pIC50 (second compound 10 µM): 5.28; viability, T/C [1]: 104%; viability, T/C [2]: 104%; viability, T/C [3]: 87.5%; viability, T/C [4]: 83.2%; viability, T/C [5]: 66.6%; viability, T/C [6]: 61.7%; viability, T/C [7]: 97.8%; viability, T/C [8]: 93.9%; viability, T/C [9]: 93.2%; viability, T/C [10]: 77.4%; viability, T/C [11]: 71.2%; viability, T/C [12]: 59.3%; viability, T/C [13]: 101%; viability, T/C [14]: 89.1%; viability, T/C [15]: 85.9%; viability, T/C [16]: 85.2%; viability, T/C [17]: 72.8%; viability, T/C [18]: 53.3%; viability, T/C [19]: 95.5%; viability, T/C [20]: 103%; viability, T/C [21]: 81.9%; viability, T/C [22]: 77.2%; viability, T/C [23]: 66.9%; viability, T/C [24]: 52.3%; viability, T/C [25]: 95.2%; viability, T/C [26]: 91.3%; viability, T/C [27]: 87.9%; viability, T/C [28]: 80.9%; viability, T/C [29]: 63.8%; viability, T/C [30]: 48.3%; viability, T/C [31]: 91.6%; viability, T/C [32]: 84.1%; viability, T/C [33]: 82.3%; viability, T/C [34]: 67.8%; viability, T/C [35]: 56.4%; viability, T/C [36]: 42%

**Q.** How did the pIC50 (second compound 0.0316 µM) turn out when CC(C)(O)C1CCC(Nc2ccc3ncc(-c4cccc(C(F)(F)F)c4)n3n2)CC1 (stereo unspecified) + CN(C)c1ccc(Nc2c3ccc(NC(=O)CCN4CCCC4)cc3nc3cc(NC(=O)CCN4CCCC4)ccc23)cc1 was run?
**A.** 5.80

**Q.** And the pIC50 (second compound 0.1 µM)?
**A.** 5.78

**Q.** And the pIC50 (second compound 0.316 µM)?
**A.** 5.79

**Q.** What about the pIC50 (second compound 1 µM) of the same compound?
**A.** 5.80

**Q.** What about the pIC50 (second compound 3.16 µM) of the same compound?
**A.** 5.82

**Q.** And the pIC50 (second compound 10 µM)?
**A.** 5.83

**Q.** And the viability, T/C [1]?
**A.** 102%

**Q.** And the viability, T/C [2]?
**A.** 91.7%

**Q.** And the viability, T/C [3]?
**A.** 87.4%

**Q.** What about the viability, T/C [4] of the same compound?
**A.** 73.4%

**Q.** What about the viability, T/C [5] of the same compound?
**A.** 15.2%

**Q.** And the viability, T/C [6]?
**A.** 14.3%

**Q.** And the viability, T/C [7]?
**A.** 106%

**Q.** And the viability, T/C [8]?
**A.** 97%

**Q.** What about the viability, T/C [9] of the same compound?
**A.** 108%

**Q.** What about the viability, T/C [10] of the same compound?
**A.** 78.8%

**Q.** What about the viability, T/C [11] of the same compound?
**A.** 14.7%

**Q.** What about the viability, T/C [12] of the same compound?
**A.** 12.1%

**Q.** And the viability, T/C [13]?
**A.** 105%

**Q.** What about the viability, T/C [14] of the same compound?
**A.** 96.9%

**Q.** What about the viability, T/C [15] of the same compound?
**A.** 94.9%

**Q.** What about the viability, T/C [16] of the same compound?
**A.** 74%

**Q.** And the viability, T/C [17]?
**A.** 15.2%

**Q.** And the viability, T/C [18]?
**A.** 16.6%

**Q.** And the viability, T/C [19]?
**A.** 95%

**Q.** And the viability, T/C [20]?
**A.** 100%

**Q.** And the viability, T/C [21]?
**A.** 90.9%

**Q.** What about the viability, T/C [22] of the same compound?
**A.** 74.9%

**Q.** And the viability, T/C [23]?
**A.** 13%

**Q.** And the viability, T/C [24]?
**A.** 13.6%

**Q.** And the viability, T/C [25]?
**A.** 91.9%

**Q.** What about the viability, T/C [26] of the same compound?
**A.** 92.2%

**Q.** And the viability, T/C [27]?
**A.** 89.5%

**Q.** And the viability, T/C [28]?
**A.** 71.3%

**Q.** What about the viability, T/C [29] of the same compound?
**A.** 13.2%

**Q.** What about the viability, T/C [30] of the same compound?
**A.** 11.4%

**Q.** What about the viability, T/C [31] of the same compound?
**A.** 84.7%

**Q.** And the viability, T/C [32]?
**A.** 81.3%

**Q.** And the viability, T/C [33]?
**A.** 75.9%

**Q.** What about the viability, T/C [34] of the same compound?
**A.** 69.4%

**Q.** What about the viability, T/C [35] of the same compound?
**A.** 11.8%

**Q.** And the viability, T/C [36]?
**A.** 10%
